Measured values: patent publication US20250011304A1, “CRYSTALLINE FORM OF N-(2-CHLORO-3-((5-CHLORO-3-METHYL-4-OXO-3,4-DIHYDROQUINAZOLIN-6-YL)AMINO)-4-FLUOROPHENYL)-3-FLUOROAZETIDINE-1-SULFONAMIDE” (Array BioPharma Inc., priority 2021, published 2025)
“Also recorded” adds a separate entry of the source.

Columns and labels:
MDR1 (P-gp) = molecular target: T1, MDR1 (P-gp) (Homo sapiens, UniProt P08183); assay: MDR1 LLC-PK1 permeability assay (efflux); assay type: in vitro ADME; conditions: statement in background
T1 construct: expressed in transfected cells; host or cells: LLC-PK1
T1 sequence (P08183 whole entry, species assumed): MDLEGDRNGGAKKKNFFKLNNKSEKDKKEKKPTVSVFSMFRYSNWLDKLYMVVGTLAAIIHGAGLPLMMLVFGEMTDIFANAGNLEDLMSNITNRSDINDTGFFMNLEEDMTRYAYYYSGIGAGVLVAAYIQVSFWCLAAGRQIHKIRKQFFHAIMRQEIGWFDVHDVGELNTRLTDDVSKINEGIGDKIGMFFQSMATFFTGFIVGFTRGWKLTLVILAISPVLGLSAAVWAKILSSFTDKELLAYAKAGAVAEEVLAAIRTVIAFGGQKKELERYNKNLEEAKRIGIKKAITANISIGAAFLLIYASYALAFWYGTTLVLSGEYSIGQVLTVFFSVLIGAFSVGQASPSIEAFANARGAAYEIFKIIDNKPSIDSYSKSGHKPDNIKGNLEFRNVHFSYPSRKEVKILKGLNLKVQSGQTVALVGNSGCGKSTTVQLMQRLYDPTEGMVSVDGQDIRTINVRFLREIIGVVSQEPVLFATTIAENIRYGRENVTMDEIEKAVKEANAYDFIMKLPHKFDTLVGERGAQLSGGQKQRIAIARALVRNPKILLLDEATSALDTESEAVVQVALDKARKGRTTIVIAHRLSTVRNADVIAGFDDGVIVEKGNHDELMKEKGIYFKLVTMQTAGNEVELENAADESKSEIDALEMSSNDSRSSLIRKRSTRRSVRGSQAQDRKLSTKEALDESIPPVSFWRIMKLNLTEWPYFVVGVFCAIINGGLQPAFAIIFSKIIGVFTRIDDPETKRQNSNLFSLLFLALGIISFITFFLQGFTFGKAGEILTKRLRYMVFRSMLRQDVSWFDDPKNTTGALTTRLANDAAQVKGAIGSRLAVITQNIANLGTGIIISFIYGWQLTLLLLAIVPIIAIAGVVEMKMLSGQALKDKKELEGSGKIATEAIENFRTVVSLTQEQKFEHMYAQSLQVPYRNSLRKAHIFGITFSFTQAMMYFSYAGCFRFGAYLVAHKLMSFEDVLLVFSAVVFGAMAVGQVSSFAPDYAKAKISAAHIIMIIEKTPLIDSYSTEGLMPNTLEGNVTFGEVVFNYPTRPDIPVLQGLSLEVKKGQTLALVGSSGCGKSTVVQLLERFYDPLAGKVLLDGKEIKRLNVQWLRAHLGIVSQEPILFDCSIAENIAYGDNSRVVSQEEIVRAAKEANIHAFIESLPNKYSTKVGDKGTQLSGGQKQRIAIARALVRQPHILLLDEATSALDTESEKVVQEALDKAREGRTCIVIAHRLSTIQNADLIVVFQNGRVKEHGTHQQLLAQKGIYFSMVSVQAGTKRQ
Description: (§1) Final organic concentration in the assay was 1%.
(§2) The efflux ratios for N-(2-chloro-3-((5-chloro-3-methyl-4-oxo-3,4-dihydroquinazolin-6-yl)amino)-4-fluorophenyl)-3-fluoroazetidine-1-sulfonamide (Compound 1) when tested in this assay were 2.1 (MDR1) and 4.2 (BCRP).

BCRP [1] = molecular target: T2, BCRP (Homo sapiens, UniProt Q9UNQ0); assay: BCRP MDCKII permeability assay (efflux); assay type: in vitro ADME; conditions: statement in background
T2 construct: expressed in transfected cells; host or cells: MDCKII
T2 sequence (Q9UNQ0 1-655): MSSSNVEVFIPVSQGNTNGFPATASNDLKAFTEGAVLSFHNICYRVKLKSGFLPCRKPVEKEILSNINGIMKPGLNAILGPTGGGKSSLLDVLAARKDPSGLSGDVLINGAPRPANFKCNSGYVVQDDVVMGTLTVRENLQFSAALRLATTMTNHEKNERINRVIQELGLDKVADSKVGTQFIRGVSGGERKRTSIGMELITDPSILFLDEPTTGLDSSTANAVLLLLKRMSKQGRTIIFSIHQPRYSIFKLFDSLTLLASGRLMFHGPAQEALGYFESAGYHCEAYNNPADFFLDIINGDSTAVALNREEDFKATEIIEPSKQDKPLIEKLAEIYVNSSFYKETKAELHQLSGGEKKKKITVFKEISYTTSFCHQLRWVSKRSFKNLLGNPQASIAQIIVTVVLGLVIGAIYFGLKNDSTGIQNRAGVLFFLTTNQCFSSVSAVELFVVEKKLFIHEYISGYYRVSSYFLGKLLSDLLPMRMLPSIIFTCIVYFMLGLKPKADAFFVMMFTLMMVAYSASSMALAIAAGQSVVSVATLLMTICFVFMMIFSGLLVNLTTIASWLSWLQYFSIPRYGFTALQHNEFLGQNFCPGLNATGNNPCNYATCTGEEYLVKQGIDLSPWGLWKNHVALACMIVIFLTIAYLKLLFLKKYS
Description: as §1, §2

[2] = PK (free brain-to-free plasma ratio) (mouse); assay type: in vivo; conditions: male CD-1 mice, oral gavage 10 mg/kg, (B/P)*(Bfu/Pfu)
Method: The ability of N-(2-chloro-3-((5-chloro-3-methyl-4-oxo-3,4-dihydroquinazolin-6-yl)amino)-4-fluorophenyl)-3-fluoroazetidine-1-sulfonamide (Compound 1) to penetrate the BBB in mice was determined by evaluating the unbound brain-to-unbound plasma (also referred to as free brain-to-free plasma) concentration ratio in male CD-1 mice.
Brain compound levels were generated from oral mouse PK dosing with typical sampling times of 2, 4, 8, 12 and 24 hours post oral gavage dosing at 10 mg/kg. Brain samples were stored at −20±5° C. prior to analysis. Concentrations of Compound 1 in mouse brain homogenate were determined by liquid chromatography tandem mass spectrometry (LC-MS/MS) following protein precipitation with acetonitrile. A 12-point calibration curve, ranging from 0.5 to 10,000 ng/mL, was prepared in duplicate. […]
Brain-to-plasma ratios were calculated using the concentration of Compound 1 measured in the brain divided by the concentration of compound measured in the plasma. […] Free brain-to-free plasma ratios were calculated by multiplying the brain-to-plasma ratio by the in vitro brain homogenate free fraction divided by the in vitro plasma free fraction using the following equation: (B/P)*(Bfu/Pfu). […]

[3] = molecular target: T3, full-length FLAG-tagged B-Raf(V600E) (Homo sapiens, UniProt P15056, V600E); assay: BRAF V600E enzyme assay (TR-FRET competitive tracer displacement); assay type: binding; conditions: 60 min, ambient temperature
T3 construct: 5 nM full-length, N-terminally FLAG-tagged B-Raf(V600E) (Origene Technologies, TP700031); purchased Origene Technologies TP700031
T3 sequence (P15056 whole entry V600E): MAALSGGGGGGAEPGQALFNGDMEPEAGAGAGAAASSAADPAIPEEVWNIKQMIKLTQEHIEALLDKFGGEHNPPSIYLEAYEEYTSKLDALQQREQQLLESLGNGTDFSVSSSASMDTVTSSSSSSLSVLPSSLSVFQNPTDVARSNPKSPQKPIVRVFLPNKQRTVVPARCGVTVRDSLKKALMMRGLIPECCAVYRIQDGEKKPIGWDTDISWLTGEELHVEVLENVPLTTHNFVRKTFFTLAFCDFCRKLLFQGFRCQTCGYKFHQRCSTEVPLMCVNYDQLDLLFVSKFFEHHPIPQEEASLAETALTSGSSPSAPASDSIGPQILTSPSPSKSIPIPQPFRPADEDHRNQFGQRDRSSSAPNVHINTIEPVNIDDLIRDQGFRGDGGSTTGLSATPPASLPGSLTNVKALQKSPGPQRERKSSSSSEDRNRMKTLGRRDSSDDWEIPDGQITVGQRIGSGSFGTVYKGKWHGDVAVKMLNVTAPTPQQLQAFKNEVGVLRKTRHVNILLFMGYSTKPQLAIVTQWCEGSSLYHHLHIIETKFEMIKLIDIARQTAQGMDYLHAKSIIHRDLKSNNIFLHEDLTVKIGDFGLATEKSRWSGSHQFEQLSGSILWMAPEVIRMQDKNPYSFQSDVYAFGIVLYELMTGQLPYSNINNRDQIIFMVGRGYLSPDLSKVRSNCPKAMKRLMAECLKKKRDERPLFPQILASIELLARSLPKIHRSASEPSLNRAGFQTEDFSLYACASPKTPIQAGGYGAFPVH
Method: A competitive displacement assay was configured for B-Raf that monitors the amount of a fluorescently-tagged “tracer” bound to B-Raf via TR-FRET from an anti-tag Eu-labeled antibody also bound to B-Raf. For full-length FLAG-tagged B-Raf(V600E), the assay mixtures consisted of 25 mM K^+HEPES, pH 7.4, 10 mM MgCl2, 0.01% Triton X-100, 1 mM DTT, 2% DMSO (from compound), 50 nM Tracer 1710 (ThermoFisher, PR9176A), 0.5 nM Eu anti-FLAG (M2)-cryptate Ab (Cisbio, 61FG2KLB) and 5 nM full-length, N-terminally FLAG-tagged B-Raf(V600E) (Origene Technologies, TP700031. N-(2-chloro-3-((5-chloro-3-methyl-4-oxo-3,4-dihydroquinazolin-6-yl)amino)-4-fluorophenyl)-3-fluoroazetidine-1-sulfonamide was diluted in DMSO across an 11-point dosing range created using a 3-fold serial dilution protocol at a top dose of 10 μM. The assay was run in 384-well, polystyrene, low-volume, non-treated, white microtiter plates (Costar 4512) in a final volume of 12 μL. Low control wells included 1 μM of a potent B-Raf inhibitor as a control. The assays were incubated at ambient temperature (typically 22° C.) for 60 min and then read on a PerkinElmer EnVision microplate reader using standard TRF settings (λEx=320 nm, λEm=615 & 665 nm). The ratioed counts (665 nm/615 nm) were converted to percent of control (POC) using the following equation:
[formula] • where: • xmax Average Uninhibited Controls • Xmin Average Background […]

[4] = Hygroscopicity (DVS water sorption and desorption); assay type: physicochemical; conditions: for Hygroscopicity: DVS 0-90% RH; for Mass Gain at 25° C. and 60% RH / Mass Gain at 25° C. and 90% RH: DVS; for PXRD Post-DVS: solid form of powder remaining after DVS analysis
Method: Water sorption and desorption were analyzed with a DVS-Resolution. The microbalance was calibrated with a 100 mg standard weight on a monthly basis. About 8 mg of the compound was added to a sample pan and placed inside chamber A of the DVS-Resolution. Percent relative humidity was held at 0% for 1 hour, and increased to 90% in 10% increments, then ramped back to 0% in 10% increments. […] The powder material remaining following the DVS analysis was analyzed by PXRD to determine if a change in the diffraction pattern is observed.

[5] = Physical stability analysis by PXRD; assay type: physicochemical; conditions: for physical stability under accelerated stability conditions: 70° C./75% relative humidity (RH) for 8 days
Method: Powder X-ray Diffraction (PXRD) method for characteristic peak determination Powder X-ray diffraction analysis was conducted using a Bruker AXS D8 Endeavor diffractometer equipped with a Copper (Cu) radiation source. The divergence slit was set at 15 mm continuous illumination. Diffracted radiation was detected by a PSD-Lynx Eye detector, with the detector PSD opening set at 2.99 degrees. The X-ray tube voltage and amperage were set to 40 kV and 40 mA respectively. Data was collected in the Theta-Theta goniometer at the Cu wavelength (CuKα=[…]) from 3.0 to 40.0 degrees 2-Theta using a step size of 0.01 degrees and a step time of 1.0 second. The antiscatter screen was set to a fixed distance of 3.0 mm. Samples were rotated at 15/min during collection. Samples were prepared by placing them in a silicon low background sample holder and rotated during collection. Data were collected using Bruker DIFFRAC Plus software and analysis was performed by EVA diffract plus software. The PXRD data file was not processed prior to peak searching. Using the peak search algorithm in the EVA software, peaks selected with a threshold value of 1 were used to make preliminary peak assignments. To ensure validity, adjustments were manually made; the output of automated assignments was visually checked, and peak positions were adjusted to the peak maximum. Peaks with relative intensity of >3% were generally chosen. Typically, the peaks which were not resolved or were consistent with noise were not selected. A typical error associated with the peak position from PXRD stated in USP up to +/−0.2° 2-Theta (USP-941).
Table 5 details the differences between Form 1 and amorphous form.

BCRP [6] = molecular target: T4, BCRP (Mus musculus, UniProt Q7TMS5); conditions: reported by Mittapalli et al.; cited from earlier work
T4 sequence (Q7TMS5 1-657): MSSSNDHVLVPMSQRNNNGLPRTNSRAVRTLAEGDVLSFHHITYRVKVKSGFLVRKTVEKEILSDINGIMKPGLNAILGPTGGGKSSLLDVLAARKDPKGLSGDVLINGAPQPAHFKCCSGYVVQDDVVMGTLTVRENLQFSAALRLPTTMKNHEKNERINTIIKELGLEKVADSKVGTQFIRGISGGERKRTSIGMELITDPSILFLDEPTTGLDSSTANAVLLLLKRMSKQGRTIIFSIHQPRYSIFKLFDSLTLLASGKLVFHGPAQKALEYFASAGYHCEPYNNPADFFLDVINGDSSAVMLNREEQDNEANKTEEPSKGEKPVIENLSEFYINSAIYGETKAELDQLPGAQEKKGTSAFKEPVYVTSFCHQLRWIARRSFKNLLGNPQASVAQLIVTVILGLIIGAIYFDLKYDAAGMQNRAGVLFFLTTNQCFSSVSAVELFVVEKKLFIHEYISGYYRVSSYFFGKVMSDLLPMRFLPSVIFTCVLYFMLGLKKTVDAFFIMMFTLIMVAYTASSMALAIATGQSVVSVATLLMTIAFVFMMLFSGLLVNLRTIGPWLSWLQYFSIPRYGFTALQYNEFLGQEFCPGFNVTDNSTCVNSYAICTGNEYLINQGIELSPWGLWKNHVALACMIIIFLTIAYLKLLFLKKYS

| Compound | Mass Gain at 25° C. and 90% RH [4] | Solid form identified by PXRD after 8 days ([5]; stored at 5° C.) | Solid form identified by PXRD after 8 days ([5]; stored at 70° C./75% RH) | Hygroscopicity [4] | physical stability under accelerated stability conditions [5] | BCRP efflux ratio (BCRP [6]) | also measured |
| --- | --- | --- | --- | --- | --- | --- | --- |
| Cn1cnc2ccc(Nc3c(F)ccc(NS(=O)(=O)N4CC(F)C4)c3Cl)c(Cl)c2c1=O [Compound 1, N-(2-chloro-3-((5-chloro-3-methyl-4-oxo-3,4-dihydroquinazolin-6-yl)amino)-4-fluorophenyl)-3-fluoroazetidine-1-sulfonamide] | – | – | – | – | – | – | substrate of active transporter P-glycoproteins (P-gp) (MDR1 (P-gp)): not a substrate; substrate of active transporter breast cancer resistance protein (BCRP) (BCRP [1]): not a substrate; Kp,uu (unbound brain-to-unbound plasma ratio) [2]: 0.12 to 0.17; IC50 [3]: 3 nM |
| CC(C)(C)c1nc(-c2cccc(NS(=O)(=O)c3c(F)cccc3F)c2F)c(-c2ccnc(N)n2)s1 [dabrafenib] | – | – | – | – | – | 21.0 | – |
| CCCS(=O)(=O)Nc1ccc(F)c(C(=O)c2c[nH]c3ncc(-c4ccc(Cl)cc4)cc23)c1F [vemurafenib] | – | – | – | – | – | 495 | – |

Now from value to molecule, other results behind:

| Mass Gain at 25° C. and 90% RH [4] | Solid form identified by PXRD after 8 days ([5]; stored at 5° C.) | Solid form identified by PXRD after 8 days ([5]; stored at 70° C./75% RH) | Compound | Hygroscopicity [4] | physical stability under accelerated stability conditions [5] | BCRP efflux ratio (BCRP [6]) | also measured |
| --- | --- | --- | --- | --- | --- | --- | --- |
| approximately 3.6% | amorphous compound 1, | crystalline anhydrous | Cn1cnc2ccc(Nc3c(F)ccc(NS(=O)(=O)N4CC(F)C4)c3Cl)c(Cl)c2c1=O [amorphous Compound 1, Form 2, amorphous N-(2-chloro-3-((5-chloro-3-methyl-4-oxo-3,4-dihydroquinazolin-6-yl)amino)-4-fluorophenyl)-3-fluoroazetidine-1-sulfonamide, Form 2] | hygroscopic | crystallized to crystalline anhydrous Compound 1, Form 1 | – | Hygroscopicity ([4]; Form 2): Hygroscopic; Mass Gain at 25° C. and 60% RH ([4]; Form 2): 1.7%; Mass Gain at 25° C. and 90% RH ([4]; Form 2): 3.6%; PXRD Post-DVS ([4]; Form 2): amorphous Compound |
| 0.0% | crystalline anhydrous | crystalline anhydrous | Cn1cnc2ccc(Nc3c(F)ccc(NS(=O)(=O)N4CC(F)C4)c3Cl)c(Cl)c2c1=O [crystalline anhydrous Compound 1, Form 1, crystalline anhydrous N-(2-chloro-3-((5-chloro-3-methyl-4-oxo-3,4-dihydroquinazolin-6-yl)amino)-4-fluorophenyl)-3-fluoroazetidine-1-sulfonamide, Form 1] | not hygroscopic; also recorded: Non-Hygroscopic | stable | – | Mass Gain at 25° C. and 60% RH [4]: 0.0%; PXRD Post-DVS [4]: crystalline anhydrous |
